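Exposure lasted 48 hours, with cells grown in 96-well plates and compounds tested at five concentrations. TGI marks complete inhibition of growth.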 Some results are limits rather than exact numbers.

Test systems include U251 CNS; 786-0 renal; NCI-H23 lung; UACC-62 melanoma; MCF7 breast; K-562 leukemia; MALME-3M melanoma; M14 melanoma; RXF 393 renal; SF-539 CNS; OVCAR-8 ovarian; HS 578T breast; KM12 colon; ACHN renal; HCC-2998 colon; HCT-116 colon; SK-MEL-2 melanoma; SK-OV-3 ovarian; PC-3 prostate; MDA-MB-231 breast.
Common to all, as to test: growth of human tumour cells (NCI), 48 h

Take `CCc1cc2c(c3c1CCC3=O)CC1(Cc3ccc(C)cc3C1)C2` (stereo not given): the TGI with U251 CNS, with 786-0 renal, with NCI-H23 lung, with UACC-62 melanoma, with MCF7 breast and in the assay with K-562 leukemia was above 100 µM throughout. In addition, the TGI with MALME-3M melanoma was above 100 µM; in the assay with M14 melanoma, above 100 µM; in the assay on RXF 393 renal, above 100 µM; in the assay on SF-539 CNS, above 100 µM; in the assay on OVCAR-8 ovarian, above 100 µM; in the assay with HS 578T breast, 86.9 µM. The TGI was above 100 µM with KM12 colon; above 100 µM in the assay with ACHN renal; above 100 µM with HCC-2998 colon; 33.1 µM in the assay on HCT-116 colon; 67.6 µM in the assay on SK-MEL-2 melanoma; above 100 µM with SK-OV-3 ovarian. Further, the TGI was 91.7 µM in the assay on PC-3 prostate and above 100 µM in the assay with MDA-MB-231 breast.

For `O=C1NCC(CSc2nc3cc(C4CCCc5c4[nH]c4ccccc54)ccc3o2)N1` (stereo not given), the TGI with U251 CNS, with 786-0 renal, with NCI-H23 lung, in the assay with UACC-62 melanoma, with MCF7 breast and with K-562 leukemia was above 100 µM each time. The TGI is above 100 µM with MALME-3M melanoma; above 100 µM with M14 melanoma; above 100 µM with RXF 393 renal; above 100 µM in the assay with SF-539 CNS; 88.1 µM in the assay with OVCAR-8 ovarian; above 100 µM in the assay with HS 578T breast. In addition, the TGI in the assay with KM12 colon, in the assay on ACHN renal, with HCC-2998 colon, with HCT-116 colon, in the assay with SK-MEL-2 melanoma and in the assay with SK-OV-3 ovarian was above 100 µM throughout. Also, the TGI in the assay with PC-3 prostate and with MDA-MB-231 breast was above 100 µM throughout.

In the case of `COc1ccc([C@H]2CC(=O)C[C@H](c3ccc(OC)cc3)C23C(=O)c2ccccc2C3=O)cc1`, the TGI in the assay on U251 CNS, in the assay on 786-0 renal, in the assay on NCI-H23 lung, with UACC-62 melanoma, in the assay with MCF7 breast and in the assay with K-562 leukemia was above 100 µM throughout. For the same molecule, the TGI in the assay with MALME-3M melanoma was above 100 µM; with M14 melanoma it was above 100 µM; with RXF 393 renal, 16 µM; in the assay on SF-539 CNS, 53.3 µM; with OVCAR-8 ovarian, above 100 µM; in the assay with HS 578T breast, 87.8 µM. The TGI in the assay with KM12 colon was above 100 µM; in the assay with ACHN renal, above 100 µM; in the assay on HCC-2998 colon, 32.6 µM; with HCT-116 colon, above 100 µM; in the assay on SK-MEL-2 melanoma it was 17.5 µM; in the assay on SK-OV-3 ovarian, above 100 µM. Also, the TGI in the assay on PC-3 prostate and in the assay with MDA-MB-231 breast was above 100 µM in each case.

Turning to `N=C(N)C1CN(CCCCCCCCCCN2CC(C(=N)N)C(=O)NC2=O)C(=O)NC1=O` (stereo not given), the TGI in the assay on U251 CNS, in the assay with 786-0 renal, in the assay on NCI-H23 lung, in the assay with UACC-62 melanoma, in the assay with MCF7 breast and in the assay with K-562 leukemia was above 10 µM each time. The TGI in the assay on MALME-3M melanoma, in the assay with M14 melanoma, in the assay with RXF 393 renal, in the assay on SF-539 CNS, in the assay on OVCAR-8 ovarian and with HS 578T breast was above 10 µM each time. For the same molecule, the TGI in the assay on KM12 colon, in the assay with ACHN renal, with HCC-2998 colon, in the assay with HCT-116 colon, with SK-MEL-2 melanoma and in the assay with SK-OV-3 ovarian was above 10 µM each time. Moreover, the TGI in the assay on PC-3 prostate and with MDA-MB-231 breast was above 10 µM in each case.

`COC(=O)C(Cc1ccccc1)NP(=O)(O)OCC1OC(n2cc(Br)c(=O)[nH]c2=O)CC1O` (stereo not given): the TGI in the assay with U251 CNS, in the assay with 786-0 renal, with NCI-H23 lung, in the assay with UACC-62 melanoma, in the assay on MCF7 breast and with K-562 leukemia was above 100 µM in each case. Also, the TGI with MALME-3M melanoma, in the assay with M14 melanoma, with RXF 393 renal, with SF-539 CNS, in the assay on OVCAR-8 ovarian and in the assay with HS 578T breast was above 100 µM each time. Moreover, the TGI with KM12 colon, with ACHN renal, with HCC-2998 colon, in the assay on HCT-116 colon, in the assay on SK-MEL-2 melanoma and in the assay on SK-OV-3 ovarian was above 100 µM in each case. Also, the TGI in the assay with PC-3 prostate and in the assay on MDA-MB-231 breast was above 100 µM in each case.
